# ChEMBL document CHEMBL3390831, “Design, synthesis, and structureactivity relationships of indole-3-carboxamides as novel water soluble cannabinoid CB1 receptor agonists” (Medchemcomm, 2010)
# Key:
# Cannabinoid receptor 1 [1] = biological target: T1, Cannabinoid receptor 1 (Homo sapiens, UniProt P21554)
# Description: Agonist activity at human cannabinoid CB1 receptor expressed in CHO cells co-expressing AP-1 response element after 5 hrs by luciferase reporter gene assay
# [2] = Aqueous solubility of the compound in phosphate buffered saline at pH 6.7 by shake-flask method; format: physicochemical
# [3] = Aqueous solubility of the compound in citrate buffer at pH 5 by shake-flask method; format: physicochemical
# [4] = Volume of distribution at steady state in ICR mouse plasma at 3 umol/kg, iv; format: ADME, cell-free; settings: read-out: Vdss
# [5] = Tmax in ICR mouse plasma at 3 umol/kg, iv; format: ADME, cell-free
# Homo sapiens [6] = organism: Homo sapiens; test: Selectivity ratio of Ki for human ERG to Ki for human cannabinoid CB1 receptor
# Mus musculus [7] = test: Antinociceptive activity in ICR mouse assessed as increase of tail flick latency at 0.2 umol/kg, iv after 20 to 60 mins by tail flick latency test relative to control; format: functional
# [8] = Ratio of Cmax in brain to plasma in ICR mouse at 3 umol/kg, iv; format: ADME, cell-free; settings: brain and plasma, read-out: BPR
# Mus musculus [9] = test: Antinociceptive activity in ICR mouse assessed as inhibition of time spent licking formalin injected paw at 0.1 umol/kg, iv after 20 to 30 mins relative to control; format: functional
# Mus musculus [10] = test: Antinociceptive activity in iv dosed ICR mouse assessed as inhibition of time spent licking formalin injected paw after 5 to 30 mins; format: functional, organism-based
# Cannabinoid receptor 1 [11] = biological target: T1, Cannabinoid receptor 1; test: biochemical
# [12] = Elimination half life in ICR mouse plasma at 3 umol/kg, iv; format: ADME, cell-free; settings: read-out: beta t1/2 (converted)
# [13] = Intrinsic clearance in mouse liver microsomes; format: ADME; settings: read-out: CLH
# Mus musculus [14] = test: Antinociceptive activity in ICR mouse assessed as inhibition of time spent licking formalin injected paw at 0.3 umol/kg, iv after 20 to 30 mins relative to control; format: functional
# [15] = Aqueous solubility of the compound in citrate buffer at pH 4.9 by shake-flask method; format: physicochemical
# Homo sapiens [16] = organism: Homo sapiens; test: Selectivity ratio of Ki for human ERG to Ki for human cannabinoid CB2 receptor
# Mus musculus [17] = test: Antinociceptive activity in ICR mouse assessed as inhibition of time spent licking formalin injected paw at 0.03 umol/kg, iv after 20 to 30 mins relative to control; format: functional
# [18] = Cmax in ICR mouse plasma at 3 umol/kg, iv; format: ADME, cell-free; parameters: dose 3 umol/kg, route intravenous
# Mus musculus [19] = test: Antinociceptive activity in ICR mouse assessed as inhibition of time spent licking formalin injected paw at 0.03 umol/kg, iv after 5 to 10 mins relative to control; format: functional
# Mus musculus [20] = test: Antinociceptive activity in ICR mouse assessed as inhibition of time spent licking formalin injected paw at 0.01 umol/kg, iv after 20 to 30 mins relative to control; format: functional
# Mus musculus [21] = test: Antinociceptive activity in ICR mouse assessed as inhibition of time spent licking formalin injected paw at 0.01 umol/kg, iv after 5 to 10 mins relative to control; format: functional
# Mus musculus [22] = test: Antinociceptive activity in ICR mouse assessed as increase of tail flick latency at 1 umol/kg, iv after 20 to 60 mins by tail flick latency test relative to control; format: functional
# [23] = Intrinsic clearance in human liver microsomes; format: ADME; settings: read-out: CLH
# Mus musculus [24] = test: Antinociceptive activity in ICR mouse assessed as inhibition of time spent licking formalin injected paw at 0.1 umol/kg, iv after 5 to 10 mins relative to control; format: functional
# Mus musculus [25] = test: Antinociceptive activity in iv dosed ICR mouse assessed as increase of tail flick latency after 20 to 60 mins by tail flick latency test; format: functional, organism-based
# Mus musculus [26] = test: Antinociceptive activity in ICR mouse assessed as increase of tail flick latency at 0.4 umol/kg, iv after 20 to 60 mins by tail flick latency test relative to control; format: functional
# [27] = Tmax in ICR mouse brain at 3 umol/kg, iv; format: ADME, tissue-based
# [28] = Cmax in ICR mouse brain at 3 umol/kg, iv; format: ADME, tissue-based; parameters: dose 3 umol/kg, route intravenous
# Cannabinoid receptor 2 = Cannabinoid receptor 2 (Homo sapiens, UniProt P34972); test: Displacement of [3H]-CP55940 from human cannabinoid CB2 receptor expressed in Sf9 insect cells after 70 mins by scintillation counting
# Mus musculus [29] = test: Antinociceptive activity in ICR mouse assessed as inhibition of time spent licking formalin injected paw at 0.3 umol/kg, iv after 5 to 10 mins relative to control; format: functional
# [30] = Clearance in ICR mouse plasma at 3 umol/kg, iv; format: ADME, cell-free
# Brain = test: AUC (0 to 1 hr) in ICR mouse brain at 3 umol/kg, iv; format: ADME, tissue-based; parameters: time < 1 hr, dose 3 umol/kg, route intravenous; settings: in vivo
# Mus musculus [31] = test: Antinociceptive activity in iv dosed ICR mouse assessed as time taken for tail flick latency to return to within mean plus two standard deviations of baseline value following twice ED50 dose by tail flick latency test; format: functional
# [32] = Aqueous solubility of the compound in phosphate buffered saline at pH 6.9 by shake-flask method; format: physicochemical
# [33] = AUC in ICR mouse plasma at 3 umol/kg, iv; format: ADME, cell-free
# [34] = Aqueous solubility of the compound in phosphate buffered saline at pH 7.4 by shake-flask method; format: physicochemical
# [35] = Aqueous solubility of the compound in phosphate buffered saline at pH 7 by shake-flask method; format: physicochemical
# T1 sequence (P21554 whole entry): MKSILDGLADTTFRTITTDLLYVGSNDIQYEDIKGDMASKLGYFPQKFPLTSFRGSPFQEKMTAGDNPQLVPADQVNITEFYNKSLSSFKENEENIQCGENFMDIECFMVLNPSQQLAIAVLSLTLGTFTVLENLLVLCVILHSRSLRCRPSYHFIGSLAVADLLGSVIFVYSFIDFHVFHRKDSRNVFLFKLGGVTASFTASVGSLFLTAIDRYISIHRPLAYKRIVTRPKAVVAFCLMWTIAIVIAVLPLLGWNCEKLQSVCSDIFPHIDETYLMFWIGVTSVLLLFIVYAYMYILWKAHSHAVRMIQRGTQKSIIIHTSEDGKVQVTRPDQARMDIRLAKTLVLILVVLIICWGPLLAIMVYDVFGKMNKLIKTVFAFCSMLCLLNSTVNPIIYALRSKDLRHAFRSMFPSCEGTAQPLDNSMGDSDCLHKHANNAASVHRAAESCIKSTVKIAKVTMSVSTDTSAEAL
# Sequence of Cannabinoid receptor 2 (P34972 whole entry): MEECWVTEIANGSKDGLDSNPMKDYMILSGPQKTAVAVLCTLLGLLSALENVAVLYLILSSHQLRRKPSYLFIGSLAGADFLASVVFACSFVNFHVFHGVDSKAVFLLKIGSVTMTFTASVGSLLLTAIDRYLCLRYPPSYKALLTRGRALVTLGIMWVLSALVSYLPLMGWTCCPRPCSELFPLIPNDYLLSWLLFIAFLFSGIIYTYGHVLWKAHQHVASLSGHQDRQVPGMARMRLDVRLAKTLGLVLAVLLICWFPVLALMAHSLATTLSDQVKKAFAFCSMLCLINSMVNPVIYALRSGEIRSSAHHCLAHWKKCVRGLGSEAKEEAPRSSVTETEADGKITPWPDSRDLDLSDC
smiles,measurement,setting,value
CN(C)CCN(C)C(=O)c1cn(CC2CCCCC2)c2ccccc12,EC50,Cannabinoid receptor 1 [1],> 3160 nM
CCN1CCN(C(=O)c2cn(CC3CCCCC3)c3c(C)cccc23)CC1,EC50,Cannabinoid receptor 1 [1],200 nM
CCN1CCN(C(=O)c2cn(CC3CCCCC3)c3ccc(Cl)cc23)CC1,EC50,Cannabinoid receptor 1 [1],1260 nM
CCN1CCN(C(=O)c2cn(CC3CCCCC3)c3cc(Br)ccc23)CC1,EC50,Cannabinoid receptor 1 [1],1000 nM
CCN1CCN(C(=O)c2cn(CC3CCCCC3)c3ccc(F)cc23)CC1,EC50,Cannabinoid receptor 1 [1],501 nM
CCN1CCN(C(=O)c2cn(CC3CCCCC3)c3cc(OC)ccc23)CC1,EC50,Cannabinoid receptor 1 [1],158 nM
CCN1CCN(C(=O)c2cn(CC3CCCCC3)c3cc(Cl)ccc23)CC1,EC50,Cannabinoid receptor 1 [1],1580 nM
CCN1CCN(C(=O)c2cn(CC3CCCCC3)c3c(Br)cccc23)CC1,EC50,Cannabinoid receptor 1 [1],794 nM
CCN1CCN(C(=O)c2cn(CC3CCCCC3)c3ccccc23)CC1,EC50,Cannabinoid receptor 1 [1],316 nM
O=C(N/N=C1\C(=O)N(Cc2ccccc2)c2ccccc21)c1ccccc1,EC50,Cannabinoid receptor 1 [1],631 nM
CCN1CCN(C(=O)c2cn(CC3CCCCC3)c3ccc(OC)cc23)CC1,EC50,Cannabinoid receptor 1 [1],> 3160 nM
CCN1CCN(C(=O)c2cn(CC3CCCCC3)c3c(OC)cccc23)CC1.O=C(O)/C=C\C(=O)O,solubility thermodynamic,[2],216 µg/mL
same,solubility thermodynamic,[3],3400 µg/mL
CN(C)CCNC(=O)c1cn(CC2CCCCC2)c2ccccc12,EC50,Cannabinoid receptor 1 [1],> 3160 nM
COc1cccc2c(C(=O)N3CCN(C)[C@@H](C)C3)cn(CC3CCCCC3)c12.Cl,Vd,[4],2.1 L/kg
same,Tmax,[5],3 min
same,Ratio Ki,Homo sapiens [6],> 100
same,MPE,Mus musculus [7],18.3%
same,Kp,[8],4
same,inhibition in vivo at 0.1 µmol/kg,Mus musculus [9],93.4%
same,inhibition,Mus musculus [10],Dose-dependent effect
same,Ki,Cannabinoid receptor 1 [11],1.26 nM
same,half-life,[12],24.6 min
same,microsomal CLint,[13],> 270 µL/min/mg
same,inhibition in vivo at 0.3 µmol/kg,Mus musculus [14],100%
same,solubility thermodynamic,[15],2810 µg/mL
same,Ratio Ki,Homo sapiens [16],> 100
same,inhibition in vivo at 0.03 µmol/kg,Mus musculus [17],79.7%
same,Cmax,[18],620 ng/mL
same,inhibition in vivo at 0.03 µmol/kg,Mus musculus [19],66%
same,inhibition in vivo at 0.01 µmol/kg,Mus musculus [20],49.2%
same,inhibition in vivo at 0.01 µmol/kg,Mus musculus [21],25.7%
same,MPE,Mus musculus [22],100%
same,microsomal CLint,[23],> 270 µL/min/mg
same,inhibition in vivo at 0.1 µmol/kg,Mus musculus [24],99%
same,Activity,Mus musculus [25],Dose-dependent effect
same,MPE,Mus musculus [26],50.1%
same,Tmax,[27],10.2 min
same,Cmax,[28],2460 ng/g
same,Ki,Cannabinoid receptor 2,1.58 nM
same,inhibition in vivo at 0.3 µmol/kg,Mus musculus [29],100%
same,clearance,[30],77.3 mL/min/kg
same,AUC,Brain,804 ng·h/g
same,Time,Mus musculus [31],90 min
same,solubility thermodynamic,[32],129 µg/mL
same,AUC,[33],248 ng·h/mL
O=C(Cc1ccccc1)N/N=C1\C(=O)N(CC2CCCCC2)c2cc(OCCN3CCOCC3)ccc21,EC50,Cannabinoid receptor 1 [1],63.1 nM
CS(=O)(=O)O.O=C(Cc1ccccc1)N/N=C1\C(=O)N(CC2CCCCC2)c2cc(OCCN3CCOCC3)ccc21,solubility thermodynamic,[34],< 500 µg/mL
CCN1[C@H](C)CN(C(=O)c2cn(CC3CCCCC3)c3c(OC)cccc23)C[C@@H]1C.Cl,solubility thermodynamic,[35],9 µg/mL
same,solubility thermodynamic,[3],> 4000 µg/mL
